Source: patent publication US9833497B2, “Human originated EGF domain proteins and use of the same” (CHENGDU SOURCEBIO LIMITED-LIABILITY COMPANY, priority 2013, dated 2017)

Legend:
Format in all cases: cell-based
Citrobacter diversus = test: MIC against Gram-negative bacteria: Citrobacter diversus; details: 5×10^5 CFU/mL
How it was run: (§1)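 MIC = lowest concentration of recombinant protein showing no growth. Test proteins: purified human-derived EGF domain proteins, two-fold dilution series, three wells per concentration; inoculum 5×10^5 CFU/mL in LB; incubation 37° C with shaking at 175 rpm.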

Enterobacter cloacae = test: MIC against Gram-negative bacteria: Enterobacter cloacae; details: 5×10^5 CFU/mL
How it was run: as §1

Pseudomonas aeruginosa = test: MIC against Gram-negative bacteria: Pseudomonas aeruginosa; details: 5×10^5 CFU/mL
How it was run: as §1

Serratia marcescens = test: MIC against Gram-negative bacteria: Serratia marcescens; details: 5×10^5 CFU/mL
How it was run: as §1

Aeromonas hydrophila = test: MIC against Gram-negative bacteria: Aeromonas hydrophila; details: 5×10^5 CFU/mL
How it was run: as §1

E. coli BL21 = test: MIC against Gram-negative bacteria: E. coli BL21; details: 5×10^5 CFU/mL
How it was run: as §1

E. coli DH5α = test: Antibacterial activity: MIC and growth curve against E. coli DH5α in 96-well plate; details: minimal inhibitory concentration against E. coli DH5α; 96-well plate, 5×10^5 CFU/mL, 37° C., judged after 8 h
How it was run: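 MIC taken as lowest protein level with no bacterial growth, tracked by A600 every 30 min during 37 °C, 175 rpm culture. Two-fold protein series 50-12.5 μg/mL final, triplicate wells, against 5×10^5 CFU/mL of LB-washed mid-log cells.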

Klebsiella pneumonia = test: MIC against Gram-negative bacteria: Klebsiella pneumonia; details: 5×10^5 CFU/mL
How it was run: as §1

Moraxella catarrhalis = test: MIC against Gram-negative bacteria: Moraxella catarrhalis; details: 5×10^5 CFU/mL
How it was run: as §1

Proteus vulgaris = test: MIC against Gram-negative bacteria: Proteus vulgaris; details: 5×10^5 CFU/mL
How it was run: as §1

Proteus mirabilis = test: MIC against Gram-negative bacteria: Proteus mirabilis; details: 5×10^5 CFU/mL
How it was run: as §1

[1] = Citrobacter diversus, 96-well plate, 37° C., 10 h
[2] = Enterobacter cloacae, 96-well plate, 37° C., 10 h
[3] = Pseudomonas aeruginosa, 96-well plate, 37° C., 10 h
[4] = Serratia marcescens, 96-well plate, 37° C., 10 h
[5] = Aeromonas hydrophila, 96-well plate, 37° C., 10 h
[6] = Klebsiella pneumonia, 96-well plate, 37° C., 10 h
[7] = Moraxella catarrhalis, 96-well plate, 37° C., 10 h
[8] = Proteus vulgaris, 96-well plate, 37° C., 10 h
[9] = Proteus mirabilis, 96-well plate, 37° C., 10 h
[10] = C. diversus, 10 h cultivation at 37° C.
[11] = E. cloacae, 10 h cultivation at 37° C.
[12] = P. aeruginosa, 10 h cultivation at 37° C.
[13] = S. marcescens, 10 h cultivation at 37° C.
[14] = A. hydrophila, 10 h cultivation at 37° C.
[15] = K. pneumonia, 10 h cultivation at 37° C.
[16] = M. catarrhalis, 10 h cultivation at 37° C.
[17] = P. vulgaris, 10 h cultivation at 37° C.
[18] = P. mirabilis, 10 h cultivation at 37° C.
[19] = 10 h cultivation at 37° C., two-fold serial dilution

PRT648 (DIDECLNPSTCPDEQCVNSPGSYQCVPCTEGFRGWNGQCL; listed as Homo sapiens)
MIC C. diversus (Citrobacter diversus; 96-well plate, 37° C., 10 h): 12.5 µg/mL
MIC E. cloacae (Enterobacter cloacae; 96-well plate, 37° C., 10 h): 12.5 µg/mL
MIC P. aeruginosa (Pseudomonas aeruginosa; 96-well plate, 37° C., 10 h): 50 µg/mL
MIC S. marcescens (Serratia marcescens; 96-well plate, 37° C., 10 h): 12.5 µg/mL
MIC A. hydrophila (Aeromonas hydrophila; 96-well plate, 37° C., 10 h): 50 µg/mL
MIC E. coli BL21 (E. coli BL21; 96-well plate, 37° C., 10 h): 25 µg/mL
MIC (E. coli DH5α): 12.5 µg/mL
MIC K. pneumonia (Klebsiella pneumonia; 96-well plate, 37° C., 10 h): 25 µg/mL
MIC M. catarrhalis (Moraxella catarrhalis; 96-well plate, 37° C., 10 h): 50 µg/mL
MIC P. vulgaris (Proteus vulgaris; 96-well plate, 37° C., 10 h): 50 µg/mL
MIC P. mirabilis (Proteus mirabilis; 96-well plate, 37° C., 10 h): 12.5 µg/mL

PRT1291 (PIHACISNPCKHGGTCHLKEGEEDGFWCICADGFEGENCE; listed as Homo sapiens)
MIC against C. diversus (Citrobacter diversus; [1]): 50 µg/mL
MIC against E. cloacae (Enterobacter cloacae; [2]): 25 µg/mL
MIC against P. aeruginosa (Pseudomonas aeruginosa; [3]): 25 µg/mL
MIC against S. marcescens (Serratia marcescens; [4]): 12.5 µg/mL
MIC against A. hydrophila (Aeromonas hydrophila; [5]): 12.5 µg/mL
MIC against E. coli BL21 (E. coli BL21; 96-well plate, 37° C., 10 h): 100 µg/mL
MIC (E. coli DH5α): 50 µg/mL
MIC against K. pneumonia (Klebsiella pneumonia; [6]): 50 µg/mL
MIC against M. catarrhalis (Moraxella catarrhalis; [7]): 12.5 µg/mL
MIC against P. vulgaris (Proteus vulgaris; [8]): 12.5 µg/mL
MIC against P. mirabilis (Proteus mirabilis; [9]): 50 µg/mL

PRT788 (WGPHCTSRCQCKNGALCNPITGACHCAAGFRGWRCE; listed as Homo sapiens)
MIC (μg/mL) C. diversus (Citrobacter diversus; [10]): 50 µg/mL
MIC (μg/mL) E. cloacae (Enterobacter cloacae; [11]): 12.5 µg/mL
MIC (μg/mL) P. aeruginosa (Pseudomonas aeruginosa; [12]): 50 µg/mL
MIC (μg/mL) S. marcescens (Serratia marcescens; [13]): 50 µg/mL
MIC (μg/mL) A. hydrophila (Aeromonas hydrophila; [14]): 25 µg/mL
MIC (μg/mL) E. coli BL21 (E. coli BL21; 10 h cultivation at 37° C.): 100 µg/mL
MIC (E. coli DH5α): 50 µg/mL
MIC (μg/mL) K. pneumonia (Klebsiella pneumonia; [15]): 25 µg/mL
MIC (μg/mL) M. catarrhalis (Moraxella catarrhalis; [16]): 25 µg/mL
MIC (μg/mL) P. vulgaris (Proteus vulgaris; [17]): 50 µg/mL
MIC (μg/mL) P. mirabilis (Proteus mirabilis; [18]): 12.5 µg/mL

PRT1136 (KQQFCQESLSSEFCSGHGKCLSEAWSKTYSCHCQPPFSGKYCQ; listed as Homo sapiens)
MIC C. diversus (Citrobacter diversus; [19]): 50 µg/mL
MIC E. cloacae (Enterobacter cloacae; [19]): 50 µg/mL
MIC P. aeruginosa (Pseudomonas aeruginosa; [19]): 50 µg/mL
MIC S. marcescens (Serratia marcescens; [19]): 12.5 µg/mL
MIC A. hydrophila (Aeromonas hydrophila; [19]): 12.5 µg/mL
MIC E. coli BL21 (E. coli BL21; [19]): 12.5 µg/mL
MIC (E. coli DH5α): 50 µg/mL
MIC K. pneumonia (Klebsiella pneumonia; [19]): 12.5 µg/mL
MIC M. catarrhalis (Moraxella catarrhalis; [19]): 12.5 µg/mL
MIC P. vulgaris (Proteus vulgaris; [19]): 50 µg/mL
MIC P. mirabilis (Proteus mirabilis; [19]): 25 µg/mL

PRT752 (TAHMCSTLEHNCAHFCINIPGSYVCRCKQGYILNSDQTTCR; listed as Homo sapiens)
MIC (μg/mL) C. diversus (Citrobacter diversus; [10]): 12.5 µg/mL
MIC (μg/mL) E. cloacae (Enterobacter cloacae; [11]): 12.5 µg/mL
MIC (μg/mL) P. aeruginosa (Pseudomonas aeruginosa; [12]): 12.5 µg/mL
MIC (μg/mL) S. marcescens (Serratia marcescens; [13]): 12.5 µg/mL
MIC (μg/mL) A. hydrophila (Aeromonas hydrophila; [14]): 50 µg/mL
MIC (μg/mL) E. coli BL21 (E. coli BL21; 10 h cultivation at 37° C.): 25 µg/mL
MIC (E. coli DH5α): 50 µg/mL
MIC (μg/mL) K. pneumonia (Klebsiella pneumonia; [15]): 12.5 µg/mL
MIC (μg/mL) M. catarrhalis (Moraxella catarrhalis; [16]): 25 µg/mL
MIC (μg/mL) P. vulgaris (Proteus vulgaris; [17]): 25 µg/mL
MIC (μg/mL) P. mirabilis (Proteus mirabilis; [18]): 50 µg/mL

PRT1332 (FGPSCSSVCNCVHGVCNSGLDGDGTCECYSAYTGPKCD; listed as Homo sapiens)
MIC against C. diversus (Citrobacter diversus; [1]): 25 µg/mL
MIC against E. cloacae (Enterobacter cloacae; [2]): 12.5 µg/mL
MIC against P. aeruginosa (Pseudomonas aeruginosa; [3]): 50 µg/mL
MIC against S. marcescens (Serratia marcescens; [4]): 25 µg/mL
MIC against A. hydrophila (Aeromonas hydrophila; [5]): 50 µg/mL
MIC against E. coli BL21 (E. coli BL21; 96-well plate, 37° C., 10 h): 12.5 µg/mL
MIC (E. coli DH5α): 50 µg/mL
MIC against K. pneumonia (Klebsiella pneumonia; [6]): 25 µg/mL
MIC against M. catarrhalis (Moraxella catarrhalis; [7]): 12.5 µg/mL
MIC against P. vulgaris (Proteus vulgaris; [8]): 12.5 µg/mL
MIC against P. mirabilis (Proteus mirabilis; [9]): 25 µg/mL

PRT69 (RRNFCDGRRCQNGGTCVNRWNMYLCECPLRFGGKNCE; listed as Homo sapiens)
MIC (μg/mL) C. diversus (Citrobacter diversus; [1]): 25 µg/mL
MIC (μg/mL) E. cloacae (Enterobacter cloacae; [2]): 25 µg/mL
MIC (μg/mL) P. aeruginosa (Pseudomonas aeruginosa; [3]): 25 µg/mL
MIC (μg/mL) S. marcescens (Serratia marcescens; [4]): 12.5 µg/mL
MIC (μg/mL) A. hydrophila (Aeromonas hydrophila; [5]): 12.5 µg/mL
MIC (μg/mL) E. coli BL21 (E. coli BL21; 96-well plate, 37° C., 10 h): 12.5 µg/mL
MIC (E. coli DH5α): 12.5 µg/mL
MIC (μg/mL) K. pneumonia (Klebsiella pneumonia; [6]): 12.5 µg/mL
MIC (μg/mL) M. catarrhalis (Moraxella catarrhalis; [7]): 12.5 µg/mL
MIC (μg/mL) P. vulgaris (Proteus vulgaris; [8]): 12.5 µg/mL
MIC (μg/mL) P. mirabilis (Proteus mirabilis; [9]): 12.5 µg/mL
